Assay results published in patent publication US20100273189A1, “NON SEPARATION ASSAYS WITH SELECTIVE SIGNAL INHIBITORS” (BECKMAN COULTER, INC., priority 2009, published 2010).
Where two headings read alike, the source gives them in different places. Blank lines part the entries; values can stand above or below the molecule they belong to.

Legend:
[1] = system: PSA; assay: Screening SSIA by homogeneous PSA immunoassay; format: biochemical
Protocol: This example presents one method used for testing of candidate compounds for functionality as SSIA in assays of the present disclosure. Testing was conducted in a model screening immunoassay of the protein PSA. Mouse anti-PSA tests were run using a 96-well microtiter plate format. […] The plate was incubated at 37° C. for 10 minutes. A 5 μL aliquot of the test compound (various concentrations) was added to each well. Chemiluminescence was triggered by the addition of 100 μL of a solution of trigger solution A. The chemiluminescent flash was integrated for 5 seconds after the addition of the trigger solution using a Luminoskan Asent® plate luminometer, (Thermo Fischer Scientific, Inc., Waltham, Mass.).
It is desirable that the improvement factor be at least 2 (S5/S0≧ about 20-30) and more desirable that improvement factor be at least 5 (S5/S0≧ about 50), yet more desirable that S5/S0 be ≧100 in the present screen.

[2] = molecular target: T1, biotinylated HRP (Armoracia rusticana, UniProt P00433); assay: Model system for selection of SSIA (M280 btn-BSA-AK1-streptavidin particles + Btn-HRP:HRP); format: biochemical; settings: for B-HRP0 light intensity: Btn-HRP 0 ng/mL; for B-HRP0 light intensity / B-HRP1 light intensity / B-HRP10 light intensity / B-HRP100 light intensity / B-HRP250 light intensity: total HRP 500 ng/mL, SSIA final 100 μM; for B-HRP1 light intensity: Btn-HRP 1 ng/mL; for B-HRP10 light intensity: Btn-HRP 10 ng/mL; for B-HRP100 light intensity: Btn-HRP 100 ng/mL; for S/S0: Btn-HRP 0 ng/mL vs 0; for S/S0 / S1/S0 / S2/S0 / S3/S0 / S4/S0 / effect in the model system / utility as SSIA: SSIA 100 μM; for S1/S0: Btn-HRP 1 ng/mL vs 0; for S2/S0: Btn-HRP 10 ng/mL vs 0; for S3/S0: Btn-HRP 100 ng/mL vs 0; for S4/S0: Btn-HRP 250 ng/mL vs 0; for B-HRP250 light intensity: Btn-HRP 250 ng/mL; for effect in the model system / utility as SSIA: conclusion in words
T1 construct: purchased Roche Diagnostics, Indianapolis, Ind., USA
T1 sequence (P00433 31-338 limits assumed): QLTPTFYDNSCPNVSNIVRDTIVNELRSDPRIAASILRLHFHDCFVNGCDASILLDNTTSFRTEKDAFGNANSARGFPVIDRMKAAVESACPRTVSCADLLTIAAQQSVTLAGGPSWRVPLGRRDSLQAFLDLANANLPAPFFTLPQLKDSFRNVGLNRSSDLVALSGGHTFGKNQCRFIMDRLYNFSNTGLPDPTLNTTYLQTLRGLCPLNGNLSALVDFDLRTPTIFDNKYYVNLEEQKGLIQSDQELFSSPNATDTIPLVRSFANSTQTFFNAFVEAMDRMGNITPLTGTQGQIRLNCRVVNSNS
Protocol: The model system uses a microparticle conjugated to BSA (bovine serum albumin) labeled with a […] and acridan ketenedithioacetal chemiluminescent label (AK1) as the chemiluminescent-labeled sbp, and biotinylated HRP as the activator-labeled specific binding pair. In the model system, varying amounts of Btn-HRP is added to the chemiluminescent-labeled specific binding pair at 0, 1, 10, 100 and 250 ng/mL. Additional unlabeled HRP is added to reach a total HRP of concentration of 500 ng/mL in each reaction mixture. The unlabeled HRP in combination with the activator-labeled sbp was provided to the chemiluminescent-labeled sbp microparticles to emulate sample. A compound for assessment as an SSIA was also added. This reaction mixture of the model system is then triggered by addition of trigger solution in a manner of assays of the present disclosure.
To prepare the chemiluminescent-labeled sbp on microparticles, Bovine Serum Albumin (BSA) was biotinylated with 4× molar excess of biotin-LC-sulfoNHS (Pierce Biotechnology Inc., Rockford, Ill., USA). Unbound reactants were removed via desalting or dialysis. The biotin-BSA was then reacted with a 5× molar excess of acridan ketenedithioacetal AK1 in 20 mM sodium phosphate pH 7.2: DMSO 75:25, v/v) followed by desalting in the same buffer. The dual labeled (biotin and AK1) BSA was then coupled with tosyl activated M-280 microparticles (Invitrogen Corporation, Carlsbad, Calif., USA) in a 0.1 M borate buffer pH 9.5 at a concentration of ca. 20 μg labeled BSA per mg of microparticles for 16-24 h at 40° C. After coupling the microparticles were stripped for 1 h at 40° C. with 0.2 M TRIS base, 2% SDS, pH ˜11. The stripping process was repeated one additional time. Microparticles were then suspended in a 0.1% BSA/TRIS buffered saline (BSA/TBS) buffer and streptavidin (SA) was added at approximately 15 μg SA per mg microparticles. Streptavidin was mixed with the microparticles for 45-50 min at room temperature. The microparticles were then washed three times and suspended in the same BSA/TBS.
HRP, (Roche Diagnostics, Indianapolis, Ind., USA) was biotinylated with 4× molar excess of biotin-LC-sulfoNHS (Pierce Biotechnology Inc., Rockford, Ill., USA). Unbound reactants were removed via desalting or dialysis.
Each SSIA compound for assessment was dissolved in Buffer II at a concentration at least 10× of final concentration of the reaction mixture (after the addition of the trigger solution)
Paramagnetic particles (PMP): (M280)-(btn-BSA-AK)-(Streptavidin);
Sample Emulator: B-HRP:HRP; 500 ng/mL total with titration of B-HRP:HRP at Total HRP concentration of 500 ng/mL, with Btn-HRP variations: 0, 1, 10, 100 and 250 ng/mL.
SSIA: According to tables below in BUFFER II targeted to give a final concentration of 100 μM.
Trigger solution A is defined above.
5 μl of 1 mg/ml of dual-labeled (biotin and AK1) BSA M280 particles were mixed with 45 μl of working concentration SSIA in Buffer II. The assay volume brought to […] by adding 15 μl of Buffer II. 15 μl of sample containing Btn-HRP:HRP at different ratios (The amount of biotinylated-HRP varied from 0, 1, 10, 100 and 250 ng/mL) was added. The reaction mixture was incubated for 30 min at 37° C., then 100 μL of trigger solution was added and the light intensity recorded. Total volume of reaction mixture, including trigger solution was […] with a final concentration of 100 μM of SSIA.

[3] = PSA 129 ng/mL (S5) vs zero, test compound final conc. 0.122 mM
[4] = PSA 129 ng/mL (S5) vs zero, test compound final conc. 122 uM
[5] = PSA 129 ng/mL (S5) vs zero, test compound final conc. 0.244 mM

Structure (SMILES): Nc1ncccc1O
S5/S0 [1, 3]: 32

Structure (SMILES): COc1ccccc1N
S5/S0 [1, 3]: 7

Structure (SMILES): c1ccc2c(c1)Nc1ccccc1O2
S5/S0 [1, 3]: 605

Structure (SMILES): c1ccc2c(c1)Cc1ccccc1N2
S5/S0 [1]: 120

Structure (SMILES): COC1=C(O)C(=O)O[C@@H]1[C@@H](O)CO
S5/S0 [1, 4]: 16

Structure (SMILES): O=C1O[C@H]([C@@H](O)CO)C(=O)C1=O
S5/S0 [1, 3]: 26

Structure (SMILES): COc1cc(O)ccc1O
S5/S0 ([1]; PSA 129 ng/mL (S5) vs zero, test compound final conc. 0.111 mM): 161

Structure (SMILES): Nc1cccc(Cl)c1O
S5/S0 [1, 5]: 300

Structure (SMILES): Oc1cccnc1O
S5/S0 [1, 3]: 41

Structure (SMILES): O=C(O)/C(O)=C(/O)C(=O)O
S5/S0 [1, 3]: 30

Structure (SMILES): O=C(O)c1cccc(O)c1O
S5/S0 [1, 3]: 22

Structure (SMILES): c1ccc2c(c1)Cc1ccccc1S2
S5/S0 [1, 3]: 9

Structure (SMILES): O=C(O)C1c2ccccc2Oc2ccccc21
S5/S0 [1, 3]: 7

Structure (SMILES): O=C(c1ccccc1)C1c2ccccc2Nc2ccccc21
S5/S0 [1, 3]: 9

Structure (SMILES): O=S(=O)([O-])CCCN1c2ccccc2Cc2ccccc21.[Na+]
S5/S0 [1, 5]: 15

Structure (SMILES): NNC(=O)c1ccccc1O
S5/S0 ([1]; PSA 129 ng/mL (S5) vs zero, test compound final conc. 0.061 mM): 23

Structure (SMILES): O=C1C=C(O)C(=O)C=C1O
S5/S0 [1, 5]: 14

Structure (SMILES): OB(O)c1cc(Cl)ccc1O
S5/S0 [1, 5]: 22

Structure (SMILES): Nc1ccccc1S
S5/S0 [1, 3]: 234

Structure (SMILES): Nc1cc2ccccc2cc1O
S5/S0 [1, 5]: 67

Structure (SMILES): Nc1ccc2ccccc2c1O
S5/S0 [1, 5]: 109

Structure (SMILES): Oc1ccc(O)c(Br)c1
S5/S0 [1, 3]: 570

Structure (SMILES): Nc1cc(C[C@H](N)C(=O)O)ccc1O
S5/S0 [1, 5]: 448

Structure (SMILES): C[C@H]1OC(=O)C(O)=C1O
S5/S0 [1, 3]: 423

Structure (SMILES): O=C1O[C@H]([C@@H](O)CO)C([O-])=C1O.[Na+]
S5/S0 [1, 4]: 9.2

Structure (SMILES): O=C1O[C@H]([C@H](O)CO)C(O)=C1O
S5/S0 [1, 4]: 10.3

B-HRP0 light intensity [2]: 64,051 | B-HRP1 light intensity [2]: 81,452 | B-HRP10 light intensity [2]: 1,073,968 | B-HRP100 light intensity [2]: 5,944,792
Structure (SMILES): Oc1ccc(C=Cc2cc(O)cc(O)c2)cc1 [Resveratrol]

S/S0 [2]: 1 | B-HRP0 light intensity [2]: 14,485 | S1/S0 [2]: 1.6 | B-HRP1 light intensity [2]: 23,707 | S2/S0 [2]: 64.8 | B-HRP10 light intensity [2]: 939,372 | S3/S0 [2]: 547.2 | B-HRP100 light intensity [2]: 7,927,096 | S4/S0 [2]: 658 | B-HRP250 light intensity [2]: 9,530,979
Structure (SMILES): COc1cc(C(=O)O)cc(OC)c1O [Syringic Acid]

Structure (SMILES): CC1(C)CC(O)CC(C)(C)N1[O] [TEMPOL]
S/S0 [2]: 1 | B-HRP0 light intensity [2]: 22,621 | S1/S0 [2]: 1.5 | B-HRP1 light intensity [2]: 33,873 | S2/S0 [2]: 86.8 | B-HRP10 light intensity [2]: 1,963,369 | S3/S0 [2]: 407.6 | B-HRP100 light intensity [2]: 9,220,799 | S4/S0 [2]: 467.6 | B-HRP250 light intensity [2]: 10,578,104 | effect in the model system / utility as SSIA [2]: no effect

S/S0 [2]: 1 | B-HRP0 light intensity [2]: 173 | S1/S0 [2]: 8.4 | B-HRP1 light intensity [2]: 1,460 | S2/S0 [2]: 215.1 | B-HRP10 light intensity [2]: 37,291 | S3/S0 [2]: 41832.7 | B-HRP100 light intensity [2]: 7,251,008 | S4/S0 [2]: 62274.5 | B-HRP250 light intensity [2]: 10,794,247 | effect in the model system / utility as SSIA [2]: demonstrating utility as SSIA
Structure (SMILES): Cc1c(C)c2c(c(C)c1O)CCC(C)(C(=O)O)O2 (stereo not drawn) [Trolox ®, Trolox]

S/S0 [2]: 1 | B-HRP0 light intensity [2]: 5,532 | S1/S0 [2]: 1.8 | B-HRP1 light intensity [2]: 9,760 | S2/S0 [2]: 185.3 | B-HRP10 light intensity [2]: 1,025,209 | S3/S0 [2]: 1574.9 | B-HRP100 light intensity [2]: 8,712,328 | S4/S0 [2]: 1935.8 | B-HRP250 light intensity [2]: 10,708,733
Structure (SMILES): O=c1[nH]c(=O)c2[nH]c(=O)[nH]c2[nH]1 [Uric Acid]
